Entries after “also recorded” stand apart in the source; their conditions may differ.

For test [1], the system named is recombinant human Dicer processing pre-miR16-1. Nature of the test: Dicer activity assay in the presence of peptide, substrate pre-miR16-1. In kind it is biochemical. Conditions: 400 nM peptide, pre-miR16-1 substrate, FIG. 2. Here is the method:
(§1) Two types of pre-miRNA (pre-let7a-1, pre-miR16-1) used as the substrate for the Dicer enzyme activity assay was ordered and manufactured by ST Pharm Co., Ltd (FIG. 1). For Dicer activity assay, the 5′ end of the synthesized pre-miRNA was labeled with ^32p isotope. Two pmole of each pre-miRNA was isotope labeled with […] of [g-^32P]ATP (New England Biolabs) using 10 units of T4 polynucleotide kinase (New England Biolabs). Total volume of 10 μl was isotope labeled for 1 hr at 37° C. The isotope labeled RNA obtained after the reaction was purified using G-25 Sephadex column (Sigma). The purified substrate was used for measuring Dicer enzyme activity. Total reaction mixture of 30 μl containing 1 nM of isotope labeled pre-miRNA and 0.001 u/μl of recombinant human Dicer (Genlantis, CA, USA) were incubated at 37° C. in 24 mM 4-(2-hydroxyethyl)-1-piperazineethanesulfonic acid, HEPES) buffer system containing 200 mM NaCl, 0.04 mM EDTA, 1 mM ATP and 2.5 mM MgCl2(pH 8.0). After reacting for 0, 10, 30, 60 or 120 min in the presence of 400 nM concentration of 2b or 2c peptide, 3 μl of each reaction mixture was mixed with 5 μl of RNA gel loading buffer {95% formamide, 10 mM ethylenediaminetetraacetic acid (EDTA), 0.05% FF (xylene cyanol FF)} and incubated for 5 min at 65° C. The amount of the reaction product was determined by gel running in 15% polyacrylamide gel containing 7M urea, and then the initial reaction velocity (V0) from each reaction was compared. The initial reaction velocity (V0) of the enzyme is the reaction velocity of the initial linear time (until 30 min). Each initial velocity was normalized with the initial velocity from each substrate condition without peptide treatment. The initial reaction velocity of Dicer for pre-let7a-1 and pre-miR16-1 without peptide treatment were […] and 0.018 fmole/min, respectively. Each of the initial reaction velocity is a mean data of more than 3 measurements, and the standard deviation is shown as error bars.

Test [2] concerns mature let7a-1 in HCT116 cells. Nature of the test: Production of mature miRNA in HCT116 cells by northern blotting. In kind it is cell-based. Conditions: 2 μM peptide, 3 hrs, FIG. 4. Here is the method: The HCT116 cell was purchased from American Type Culture Collection (ATCC) and was cultured in RPMI1640 medium at 37° C., under 5% CO2. Total RNA was extracted using Trizol reagent (Invitrogen) according to the manufactures recommended protocol.
The change in RNA amount was analyzed by culturing the cells with 2 μM concentration of peptide 2b or peptide 2c and with lipofectamine.
HCT116 cells were treated with 2 μM of peptide 2b, 2c, 1e or 0.2 μg/ml of doxorubicin for 3 hrs before analyzing the production of mature miRNA in total RNA using northern blotting. The 18S rRNA band intensity was used as the loading control. […] Peptide 1e was used as a negative control. Decade marker (Ambion) and 10˜20 μg of total RNA were separated by using 12.5% polyacrylamide gel containing 7M urea in 20 mM of 3-(N-morpholino)propanesulfonic acid (MOPS)-NaOH(pH 7.0) buffer at 350V for 2 hrs. RNA blotting was performed by chemical cross-linking method. Each of the separated RNA was transferred with the neutral nylon membrane (Hybond NX, Amersham/Pharmacia) and crosslinked to the membrane using 1-ethyl-3-(3-dimethylaminopropyl)carbodiimide (EDC). The membrane was prehybridized with the hybridization buffer (Clontech, CA, USA) containing 50 μl of 10 mg/ml of salmon sperm DNA. Next, the isotope labeled probe DNA which is complementary to the miRNA sequence was hybridized for 2 hrs in the same buffer condition.
The probe was isotope labeled with 25 μCi of [γ-^32P] ATP (New England Biolabs) and 5 units of polynucleotide kinase (New England Biolabs). The probe was ethanol precipitated and dissolved in 50 μl of DEPC treated water for use. The membrane was washed twice for 30 min with 200 ml of wash buffer containing 0.3 M NaCl, 0.03 M sodium citrate and 0.05% sodium dodecyl sulfate (SDS)(pH 7.0), then washed twice for 15 min with 200 ml of wash buffer containing 0.015 M NaCl, 0.0015 M sodium citrate and 0.1% SDS(pH 7.0). The membrane was exposed on the phosphorimager screen and each of the band intensity was detected by FLA-3000 and analyzed by using MultiGauge Ver. 3.0 software (Fuji Photo).

The test system of test [3] is recombinant human Dicer processing pre-let7a-1. Kind of test: Dicer activity assay in the presence of peptide, substrate pre-let7a-1. In kind it is biochemical. Conditions: for initial reaction velocity (V0) of Dicer, normalized to no peptide: 400 nM peptide, pre-let7a-1 substrate, FIG. 2; for initial reaction velocity of Dicer: FIG. 3. The protocol:
as §1, with “[…],” for “60 or 120 min in the presence of 400 nM concentration of 2b or 2c peptide,”

As for “WKKLLKLLKKWLKLAG [Peptide 2c, Ac-WKKLLKLLKKWLKLAG, 14]”, the “initial reaction velocity (V0) of Dicer, normalized to no peptide” value in test [1] and in test [3] was “increase in initial reaction velocity; also recorded: accelerated” each time. Also, the “level of mature let7a-1” value in test [2] was “increased”.

Usually EC50 stands for the midpoint of the concentration-response curve. Turning to “WKKLLKWLKKLLKLAG [Peptide 2b, Ac-WKKLLKWLKKLLKLAG, 13]”, the “initial reaction velocity (V0) of Dicer, normalized to no peptide” value in test [1] is “significantly increased; also recorded: accelerated”; in test [3] it was “highest acceleration; also recorded: profound increase”. Moreover, the “level of mature let7a-1” value in test [2] is “significant increase”. Moreover, the hill slope in test [3] (FIG. 3, concentration dependence, pre-miRNA substrate not named) is 3.5. For the same sequence, the EC50 in test [3] (FIG. 3, concentration dependence, pre-miRNA substrate not named, read-out: EC50 of initial velocity of Dicer in processing pre-miRNA) amounted to 940 nM. The “initial reaction velocity of Dicer” value in test [3] (peptide concentration higher than 100 nM) was “significant increase; also recorded: rapid increase”; in test [3] (peptide concentration higher than 1,000 nM), “decrease”.

Values taken from patent US20110230367A1, “Amphiphilic Peptides Promoting Production of Target miRNA and Method of Regulating Production of Target miRNA” (SNU R&DB FOUNDATION, priority 2009, published 2011).
